Assay results taken from the supplement of paper PMC10307832.

Experiments:
Experiment in all cases: relative viability (nuclei count vs DMSO), 5 days (fraction); higher = more cells survive
[1] = compound: CCN(CCO)CCCC(C)Nc1ccnc2cc(Cl)ccc12 [Hydroxychloroquine] + CC(=O)Nc1cccc(-n2c(=O)n(C3CC3)c(=O)c3c(Nc4ccc(I)cc4F)n(C)c(=O)c(C)c32)c1 [Trametinib] (partner 0.02 µM)
Summary of the method: (§1)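 Lung cancer cell lines were seeded in 1536-well plates and dosed by pin tool the next day, with either a single drug or a fixed anchor-drug dose combined with five library-drug doses (not always all listed) spaced in √10 steps. Five days later, one step fixed the cells and stained their nuclei (final 0.05% Triton X-100, 1% formaldehyde, 1 ug/ml Hoechst), and nuclei were counted on 4× images. Relative viability is the nuclei count in treated wells divided by the count in vehicle wells, and each value is the median of duplicate plates.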

[2] = compound: CCN(CCO)CCCC(C)Nc1ccnc2cc(Cl)ccc12 [Hydroxychloroquine] + CC(C)C[C@H](NC(=O)[C@H](Cc1ccccc1)NC(=O)c1cnccn1)B(O)O [Bortezomib] (partner 0.002 µM)
Summary of the method: as §1

[3] = compound: CCN(CCO)CCCC(C)Nc1ccnc2cc(Cl)ccc12 [Hydroxychloroquine] + CS(=O)(=O)N1CCN(Cc2cc3nc(-c4cccc5[nH]ncc45)nc(N4CCOCC4)c3s2)CC1 [Pictilisib] (partner 1 µM)
Summary of the method: as §1

[4] = compound: CCN(CCO)CCCC(C)Nc1ccnc2cc(Cl)ccc12 [Hydroxychloroquine] + O=C(c1cc(Cc2n[nH]c(=O)c3ccccc23)ccc1F)N1CCN(C(=O)C2CC2)CC1 [Olaparib] (partner 8 µM)
Summary of the method: as §1

Cell Line	relative viability ([1]; first compound 0.5 µM)	relative viability ([1]; first compound 1.581 µM)	relative viability ([1]; first compound 5 µM)	relative viability ([1]; first compound 15.81 µM)	relative viability ([1]; first compound 50 µM)	relative viability ([2]; first compound 0.5 µM)	relative viability ([2]; first compound 1.581 µM)	relative viability ([2]; first compound 5 µM)	relative viability ([2]; first compound 15.81 µM)	relative viability ([2]; first compound 50 µM)	relative viability ([3]; first compound 0.5 µM)	relative viability ([3]; first compound 1.581 µM)	relative viability ([3]; first compound 5 µM)	relative viability ([3]; first compound 15.81 µM)	relative viability ([3]; first compound 50 µM)	relative viability ([4]; first compound 0.5 µM)	relative viability ([4]; first compound 1.581 µM)	relative viability ([4]; first compound 5 µM)	relative viability ([4]; first compound 15.81 µM)	relative viability ([4]; first compound 50 µM)
NCI-H2087	0.202	0.234	0.187	0.193	0.238	0.829	0.959	0.835	0.869	1.1	0.891	0.879	0.798	0.919	0.721	0.596	0.709	0.683	0.756	0.511
NCI-H2126	0.5	0.516	0.603	0.544	0.55	1.11	1.07	1.09	1.1	1.18	0.525	0.433	0.485	0.467	0.542	0.98	0.921	0.9	0.975	0.926
NCI-H2228	0.322	0.421	0.654	0.584	0.365	1	1.18	1	1.05	1.29	0.403	0.375	0.339	0.412	0.398	0.716	0.75	0.575	0.653	0.623
NCI-H2347	0.293	0.248	0.272	0.281	0.325	0.979	0.911	0.931		0.878	0.511	0.534	0.573	0.6	0.637	0.594	0.563	0.588	0.608	0.541
NCI-H2405	0.668	0.677	0.585	0.62	0.615	1.03	0.918	1.02	0.989	1.04	0.471	0.346	0.416	0.466	0.541	0.934	0.87	0.836	0.886	0.861
NCI-H3122	0.19	0.215	0.2	0.319	0.232	0.981	1.01	1.05	1.05	1.07	0.658	0.574	0.619	0.58	0.576	0.623	0.646	0.676	0.664	0.729
PC-3 [JPC-3]	0.694	0.69	0.668	0.723	0.681	0.787	0.841	0.812	0.694	0.94	0.79	0.696	0.693	0.674	0.784	1.23	1.14	1.09	1.2	1.16
PC-14	0.708	0.846	0.667	0.798	0.687	0.783	0.959	0.925	0.788	0.852	0.7	0.687	0.683	0.595	0.78	0.31	0.28	0.276	0.25	0.285
RERF-LC-KJ	0.858	0.826	0.825	0.83	0.886	1.15	1.1	0.984	1.15	1.08	0.43	0.518	0.55	0.488	0.603	0.917	0.948	0.896	0.846	0.933
SK-LU-1	0.454	0.374	0.508	0.462	0.404	1.27	1.04	1.29	1.18	1.37	0.567	0.529	0.568	0.474	0.543	0.45	0.425	0.491	0.426	0.445
SW 1573	0.617	0.595	0.55	0.625	0.499	0.966	1.17	0.931	0.947	1.1	0.484	0.392	0.535	0.528	0.603	0.504	0.484	0.432	0.472	0.458
UMC-11	0.642	0.431	0.762	0.669	0.741	0.626	0.822	0.863	0.657	1.15	0.843	0.542	0.752	0.844	1.03	0.342	0.325	0.365	0.366	0.353
